Results on 26 compounds are retold here after US11479539B2, “Small molecule modulators of the BTB domain of Keap1” (MedImmune Limited, priority 2017, dated 2022).

Sequence of Keap1 (Q14145 whole entry): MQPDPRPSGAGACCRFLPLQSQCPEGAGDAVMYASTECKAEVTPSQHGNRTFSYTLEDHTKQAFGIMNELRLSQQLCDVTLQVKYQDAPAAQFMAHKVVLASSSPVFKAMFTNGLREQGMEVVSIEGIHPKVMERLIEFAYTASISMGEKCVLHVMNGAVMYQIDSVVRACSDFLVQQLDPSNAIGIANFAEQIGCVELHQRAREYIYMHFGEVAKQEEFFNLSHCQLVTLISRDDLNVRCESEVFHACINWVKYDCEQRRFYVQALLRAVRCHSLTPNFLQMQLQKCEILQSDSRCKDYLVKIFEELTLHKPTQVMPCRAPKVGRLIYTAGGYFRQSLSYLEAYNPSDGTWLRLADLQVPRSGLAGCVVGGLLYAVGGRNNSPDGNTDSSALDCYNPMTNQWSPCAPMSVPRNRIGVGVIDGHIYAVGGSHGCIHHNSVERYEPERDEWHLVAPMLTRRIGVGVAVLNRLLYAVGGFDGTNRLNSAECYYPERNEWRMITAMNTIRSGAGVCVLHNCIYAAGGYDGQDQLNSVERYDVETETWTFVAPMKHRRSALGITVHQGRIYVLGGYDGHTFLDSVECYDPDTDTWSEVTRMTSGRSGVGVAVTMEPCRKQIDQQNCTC

In the test the target is Keap1 (Homo sapiens (Human), UniProt Q14145). Kind of test: HEK293 ARE luciferase assay. The format is cell-based. As to conditions: HEK-293 ARE firefly luciferase transiently transfected cells; 18 h incubation; mean of 1 to 20 individual measurements. The text has this:
The purpose of this assay is to identify small molecule inhibitors of Keap1, preventing Keap1 binding to Nrf2, and thus activating the Nrf2 signalling pathway in HEK-293 ARE firefly luciferase transiently transfected cells. HEK-293 cells express wild-type Keap1 protein and therefore have low constitutive levels of Nrf2 protein and Nrf2-dependent transcription. […] When Keap1 is inhibited, Nrf2 signalling is activated, and there is an increase in luciferase expression and light emission.
Cryopreserved HEK ARE luciferase cells were rapidly thawed in a 37° C. water bath and resuspended in assay culture medium (DMEM, 10% FCS, 2 mM L-glutamine). The cell suspension was pelleted by centrifugation ([…]; 300 g) using a Heraeus benchtop centrifuge. Supernatant was removed and the pellet was gently resuspended in 5 mL culture medium per vial. Cell viability and cell number was measured using an Invitrogen Countess automated cell counter (typical viability 80%), and cells were diluted to a density of 5.0×10^5 cells/mL.
Cells were then plated out into white 384-well plates (Greiner 781080) using a Multidrop Combi, 20 μL/well, to give 10,000 cells/well. As appropriate, test compounds had been added to wells prior to dispensing cells using an Echo 555 acoustic dispenser (Labcyte). Plates were left at room temperature for ˜10 min to promote even cell settling across the plate before incubation for 18 h at 37° C., 95% humidity and 5% CO2.
After 18 h incubation, plates were removed from the incubator and allowed to cool to room temperature for 30 min, before 10 μL per well SteadyGlo reagent detection reagent was added (as per manufacturer's instructions, 10 min before required 10 mL room temperature buffer was added to one vial of lyophilised substrate and inverted several times to fully dissolve). Plates were then incubated in the dark for 30 min before reading on an Envision plate reader.
Compounds were acoustically dispensed using a Labcyte Echo, using a 10 pt dose curve with a top concentration of 100 μM. Assay wells were backfilled with DMSO to a total of 60 nL to maintain 0.3% (v/v) DMSO through the assay.
The Stimulator signal was defined using 30 μM tert-butyl hydroquinone (tBHQ) and the Neutral signal by DMSO vehicle control. All calculations were performed using GeneData.
In IBIS Column Calculations, Assay Type was set to ‘Stimulator’, and the Activity Threshold was set to 50.
The mean values were calculated from anywhere from 1 to 20 individual measurements.
As a reminder, the EC50 is the concentration needed to bring the measured effect to its halfway point. Read a high EC50 as a less potent agent. On to `COC1(c2ncc(F)cc2F)C=C(C#N)C(=O)C2(CC2)C1` (single isomer, unassigned) [Compound 60, 7-(3,5-difluoropyridin-2-yl)-7-methoxy-4-oxospiro[2.5]oct-5-ene-5-carbonitrile], for which the concentration giving a half-maximal response (EC50) came out at 153 nM. Next, `COC1(c2ncc(Cl)cc2F)C=C(C#N)C(=O)C2(CC2)C1` (single isomer, unassigned) [Compound 61, 7-(5-chloro-3-fluoropyridin-2-yl)-7-methoxy-4-oxospiro[2.5]oct-5-ene-5-carbonitrile]: 79 nM. Next, `COC1(c2ncc(F)cc2OC(F)F)C=C(C#N)C(=O)C2(CC2)C1` (single isomer, unassigned) [Compound 62, 7-[3-(difluorometh-oxy)-5-fluoropyridin-2-yl]-7-methoxy-4-oxospiro[2.5]oct-5-ene-5-carbonitrile]: 15 nM. Next, `COC1(c2ncc(F)cc2C(F)F)C=C(C#N)C(=O)C2(CC2)C1` (single isomer, unassigned) [Compound 63, 7-[3-(difluoromethyl)-5-fluoropyridin-2-yl]-7-methoxy-4-oxospiro[2.5]oct-5-ene-5-carbonitrile]: 18 nM. `COC1(c2ncccc2C(F)(F)F)C=C(C#N)C(=O)C2(CCCC2)C1` (single isomer, unassigned) [Compound 66, 9-methoxy-6-oxo-9-[3-(trifluoromethyl)pyridin-2-yl]spiro[4.5]dec-7-ene-7-carbonitrile] registered an EC50 of 126 nM. The result for `COC1(c2ccc(F)cn2)C=C(C#N)C(=O)C2(CCCC2)C1` (single isomer, unassigned) [Compound 67, 9-(5-fluoropyridin-2-yl)-9-methoxy-6-oxospiro[4.5]dec-7-ene-7-carbonitrile] reads 239 nM; that for `COC1(c2ncc(F)cc2C)C=C(C#N)C(=O)C2(CCCC2)C1` (single isomer, unassigned) [Compound 68, 9-(5-fluoro-3-methylpyridin-2-yl)-9-methoxy-6-oxospiro[4.5]dec-7-ene-7-carbonitrile], 70 nM.

Take `COC1(c2ncc(F)cc2-c2cnn(C)c2)C=C(C#N)C(=O)C(C)(C)C1` (single isomer, unassigned) [Compound 69, 3-[5-fluoro-3-(1-methyl-1H-pyrazol-4-yl)pyridin-2-yl]-3-methoxy-5,5-dimethyl-6-oxocyclohex-1-ene-1-carbonitrile]: the half-maximal effective concentration (EC50) is 2 nM. Next, `COC1(c2ncc(F)cc2-c2ccc(F)cc2)C=C(C#N)C(=O)C(C)(C)C1` (single isomer, unassigned) [Compound 70, 3-[5-fluoro-3-(4-fluorophenyl)pyridin-2-yl]-3-methoxy-5,5-dimethyl-6-oxocyclohex-1-ene-1-carbonitrile]: 15 nM. Turning to `COC1(c2ncc(F)cc2-c2cnn(C)c2C)C=C(C#N)C(=O)C(C)(C)C1` (single isomer, unassigned) [Compound 71, 3-[3-(1,5-dimethyl-1H-pyrazol-4-yl)-5-fluoropyridin-2-yl]-3-methoxy-5,5-dimethyl-6-oxocyclohex-1-ene-1-carbonitrile], it took 9 nM to reach a half-maximal effect (EC50). As for `COC1(c2ncc(F)cc2-c2cnn(C3CC3)c2)C=C(C#N)C(=O)C(C)(C)C1` (single isomer, unassigned) [Compound 72, 3-[3-(1-cyclopropyl-1H-pyrazol-4-yl)-5-fluoropyridin-2-yl]-3-methoxy-5,5-dimethyl-6-oxocyclohex-1-ene-1-carbonitrile], the EC50 is 6 nM. This EC50 lies about 1.5-fold lower than the previous one. `COC1(c2ncc(F)cc2-c2cnc(C)s2)C=C(C#N)C(=O)C(C)(C)C1` (single isomer, unassigned) [Compound 73, 3-[5-fluoro-3-(2-methyl-1,3-thiazol-5-yl)pyridin-2-yl]-3-methoxy-5,5-dimethyl-6-oxocyclohex-1-ene-1-carbonitrile] displayed a concentration giving a half-maximal response (EC50) of 7 nM. The result for `COC1(c2ncc(F)cc2-c2cccn(C)c2=O)C=C(C#N)C(=O)C(C)(C)C1` (single isomer, unassigned) [Compound 75, 3-[5-fluoro-3-(1-methyl-2-oxo-3-pyridyl)-2-pyridyl]-3-methoxy-5,5-dimethyl-6-oxo-cyclohexene-1-carbonitrile] reads 36 nM. `COC1(c2ncc(F)cc2-c2ccnc(C)c2)C=C(C#N)C(=O)C(C)(C)C1` (single isomer, unassigned) [Compound 76, 3-[5-fluoro-3-(2-methyl-4-pyridyl)-2-pyridyl]-3-methoxy-5,5-dimethyl-6-oxo-cyclohexene-1-carbonitrile]: it took 3 nM to reach a half-maximal effect (EC50).

For the compound `COC1(c2ncc(F)cc2-c2cc(C)nc(C)c2)C=C(C#N)C(=O)C(C)(C)C1` (single isomer, unassigned) [Compound 77, 3-[3-(2,6-dimethyl-4-pyridyl)-5-fluoro-2-pyridyl]-3-methoxy-5,5-dimethyl-6-oxo-cyclohexene-1-carbonitrile], the EC50 stood at 4 nM.

`COC1(c2ncc(F)cc2-c2cn(C)nc2C)C=C(C#N)C(=O)C(C)(C)C1` (single isomer, unassigned) [Compound 78, 3-[3-(1,3-dimethylpyrazol-4-yl)-5-fluoro-2-pyridyl]-3-methoxy-5,5-dimethyl-6-oxo-cyclohexene-1-carbonitrile]: the EC50 amounted to 2 nM. Next, `COC1(c2ncc(F)cc2-c2cccnc2C)C=C(C#N)C(=O)C(C)(C)C1` (single isomer, unassigned) [Compound 79, 3-[5-fluoro-3-(2-methyl-3-pyridyl)-2-pyridyl]-3-methoxy-5,5-dimethyl-6-oxo-cyclohexene-1-carbonitrile]: 74 nM; `COC1(c2ncc(F)cc2-c2cnn(-c3ccccc3)c2)C=C(C#N)C(=O)C(C)(C)C1` (single isomer, unassigned) [Compound 81, 3-[5-fluoro-3-(1-phenylpyrazol-4-yl)-2-pyridyl]-3-methoxy-5,5-dimethyl-6-oxo-cyclohexene-1-carbonitrile]: 2 nM.

Regarding `COC1(c2ncc(F)cc2-c2ccnc(C)c2C)C=C(C#N)C(=O)C(C)(C)C1` (single isomer, unassigned) [Compound 82, 3-[3-(2,3-dimethyl-4-pyridyl)-5-fluoro-2-pyridyl]-3-methoxy-5,5-dimethyl-6-oxo-cyclohexene-1-carbonitrile], the midpoint of the response, the EC50, lay at 52 nM.

In turn, `COC1(c2ncc(F)cc2-c2cnn(C3CCCC3)c2)C=C(C#N)C(=O)C(C)(C)C1` (single isomer, unassigned) [Compound 83, 3-[3-(1-cyclopentylpyrazol-4-yl)-5-fluoro-2-pyridyl]-3-methoxy-5,5-dimethyl-6-oxo-cyclohexene-1-carbonitrile] registered an EC50 of 70 nM. Next, `COC1(c2ncc(F)cc2-c2cncc(F)c2)C=C(C#N)C(=O)C(C)(C)C1` (single isomer, unassigned) [Compound 84, 3-[5-fluoro-3-(5-fluoro-3-pyridyl)-2-pyridyl]-3-methoxy-5,5-dimethyl-6-oxo-cyclohexene-1-carbonitrile]: 6 nM; `COC1(c2ncc(F)cc2-c2cncc(C#N)c2)C=C(C#N)C(=O)C(C)(C)C1` (single isomer, unassigned) [Compound 85, 2′-(3-cyano-1-methoxy-5,5-dimethyl-4-oxocyclohex-2-enyl)-5′-fluoro-3,3′-bipyridine-5-carbonitrile]: 6 nM; `CCn1cc(-c2cc(F)cnc2C2(OC)C=C(C#N)C(=O)C(C)(C)C2)cn1` (single isomer, unassigned) [Compound 86, 3-[3-(1-ethylpyrazol-4-yl)-5-fluoro-2-pyridyl]-3-methoxy-5,5-dimethyl-6-oxo-cyclohexene-1-carbonitrile]: 9 nM.

Take `COC1(c2ncc(F)cc2-c2cncc(C(F)(F)F)c2)C=C(C#N)C(=O)C(C)(C)C1` (single isomer, unassigned) [Compound 87, 3-[5-fluoro-3-[5-(trifluoromethyl)-3-pyridyl]-2-pyridyl]-3-methoxy-5,5-dimethyl-6-oxo-cyclohexene-1-carbonitrile]: the EC50 turned out to be 17 nM. The result for `COC1(c2ncc(F)cc2-c2cncc(Cl)c2)C=C(C#N)C(=O)C(C)(C)C1` (single isomer, unassigned) [Compound 88, 3-[3-(5-chloro-3-pyridyl)-5-fluoro-2-pyridyl]-3-methoxy-5,5-dimethyl-6-oxo-cyclohexene-1-carbonitrile] reads 9 nM. The result for `COC1(c2ncc(F)cc2-c2cnc(C)nc2)C=C(C#N)C(=O)C(C)(C)C1` (single isomer, unassigned) [Compound 89, 3-[5-fluoro-3-(2-methylpyrimidin-5-yl)-2-pyridyl]-3-methoxy-5,5-dimethyl-6-oxo-cyclohexene-1-carbonitrile] reads 11 nM.
